Test results reported in US11932638B2, “Ion channel inhibitor compounds for cancer treatment” (Centre National de la Recherche Scientifique, priority 2017, dated 2024).
Read-outs that look alike come from different tables or passages of the source.

Target: T1, SK3 channel (Rattus norvegicus, UniProt P70605)
T1 construct: expressed in transfected cells
Assay: Conventional manual patch clamp on HEK-rSK3 cells, SK3 channel activity
Format: cell-based
Details: for inhibition at 0.5 µM: 500 nM
Description: Cell Lines Used to Screen the Molecules on the Activity of SKCa Channels (Small Conductance Calcium-Activated Potassium Channel; SK1, SK2 and SK3) and IKCa Channels (Intermediate Conductance Calcium-Activated Potassium Channel, SK4)
Use was made of the HEK 293 T line, a foetal kidney line which was immortalised with the T antigen of the […] simian virus. This cell line is widely used on account of the ease with which these cells can be transfected with plasmids or other transfection vectors. Four stable lines were used for patch clamp experiments: HEK-hSK1, HEK-rSK2, HEK-rSK3 and HEK-IKCa/SK4 which respectively overexpress the SK1, SK2, SK3 and SK4 channels. The lines were obtained via stable transduction (Girault et al., Current Cancer Drug Targets, 2011, 11, 1111-25) and are those already routinely used to assay SK3 modulators (Potier et al. Br J Pharmacol. 2011 January; 162(2):464-79; Sevrain et al., Med. Chem. Commun., 2012, 3, 1471-1478; Sevrain et al., Organic & Biomolecular Chemistry, 2013 Jul. 21; 11(27):4479-87, Berthe W, Sevrain C M, Chantôme A, Bouchet A M, Gueguinou M, Fourbon Y, Potier-Cartereau M, Haelters J P, Couthon-Gourvès H, Vandier C, Jaffrès P A. ChemMedChem. 2016 Jul. 19; 11(14):1531-9). […] These lines therefore enabled us without difficulty to examine the effect of the molecules on the SK3 channel, and also the selectivity thereof by means of the patch clamp technique. The inhibitory activity of the non-toxic molecules was assayed on the activity of the SK3 channel. The selectivity of the molecules was determined by patch clamp on HEK cell models stably expressing the SK3 channel but also the SK1, SK2, SK3 or IKCa/SK4 channels.
Electrophysiology/Patch-Clamp
Patch clamp is a technique allowing measurement of the activity of ion channels by recording macroscopic (whole cell configuration) or microscopic (e.g. inside out configuration) ionic currents through the plasma membrane. For assay of the effect of the molecules on the SKCa/IKCa channels, two complementary techniques were used: conventional, manual patch clamp and automated patch clamp with the Nanion NPC-16 Patchliner Quattro (4 channels) (Potier et al., Mol Cancer Ther 2006, 5, 2946-53; Chantome et al., Exp Cell Res 2009, 315, 3620-30; Potier et al., Biochem Biophys Res Commun 2010, 397, 42-7; Girault et al., Current Cancer Drug Targets, 2011, 11, 1111-25; Sevrain et al., Med. Chem. Commun., 2012, 3, 1471-1478; Sevrain et al., Organic & Biomolecular Chemistry, 2013 Jul. 21; 11(27):4479-87; Chantome et al., Cancer Research, 2013 Aug. 1; 73(15):4852-61, Gueguinou M, Crottès D, Chantôme A, Rapetti-Mauss R, Potier-Cartereau M, Clarysse L, Girault A, Fourbon Y, Jézéquel P, Guérin-Charbonnel C, Fromont G, Martin P, Pellissier B, Schiappa R, Chamorey E, Mignen O, Uguen A, Borgese F, Vandier C, Soriani O. Oncogene. 2017 Jan. 23. doi: 10.1038/onc.2016.501, Berthe W, Sevrain C M, Chantôme A, Bouchet A M, Gueguinou M, Fourbon Y, Potier-Cartereau M, Haelters J P, Couthon-Gourvès H, Vandier C, Jaffrès P A. ChemMedChem. 2016 Jul. 19; 11(14):1531-9, Guéguinou M, Harnois T, Crottes D, Uguen A, Deliot N, Gambade A, Chantôme A, Haelters J P, Jaffrès P A, Jourdan M L, Weber G, Soriani O, Bougnoux P, Mignen O, Bourmeyster N, Constantin B, Lecomte T, Vandier C, Potier-Cartereau M. Oncotarget. 2016 Jun. 14; 7(24):36168-36184. doi: 10.18632/oncotarget.8786).
For conventional patch clamp, the micropipette is filled with an intrapipette medium—IPM (see composition below) and allows measurement of ionic currents at the same time as allowing maintaining of membrane potential (voltage clamp). The experimental device was composed of an anti-vibration table supporting an inverted microscope (Nikon, Eclipse TE 300). The Petri dish (Corning Incorporated, USA), containing the cells was placed on a plexiglass plate attached to the microscope stage. The pipette was connected to the amplifier (Axopatch 200B) as reference electrode which allowed closing of the electrical circuit. […]

inhibition at 10 µM (10 μM) [%]	inhibition at 0.05 µM (50 nM) [%]	inhibition at 0.5 µM [%]	inhibition at 0.1 µM (100 nM) [%]	SMILES	also measured
3.6	–	–	–	Clc1ccc(CNc2ncc3ncccc3n2)cc1Cl [Compound 4, N-(3,4-Dichlorobenzyl)pyrido[3,2-d]pyrimidin-2-amine]	–
7.7	–	–	–	c1ccc2c(c1)CCCC2Nc1ncc2ncccc2n1 (stereo not drawn) [Compound 5, N-(1,2,3,4-Tetrahydronaphthalen-1-yl)pyrido[3,2-d]pyrimidin-2-amine]	–
2.65	–	–	–	Clc1nc(NC2CCCc3ccccc32)c2ncccc2n1 (stereo not drawn) [Compound 6, 2-Chloro-N-(1,2,3,4-tetrahydronaphthalen-1-yl)pyrido[3,2-d]pyrimidin-4-amine]	–
1.52	–	–	–	Clc1ccc(CNc2ncnc3cccnc23)cc1Cl [Compound 14, N-(3,4-Dichlorobenzyl)pyrido[3,2-d]pyrimidin-4-amine]	–
–	23.6	27.7	–	N#Cc1nc(NC2CCCc3ccccc32)c2ncccc2n1 (stereo not drawn) [Compound 32, 4-(1,2,3,4-tetrahydronaphthalen-1-ylamino)pyrido[3,2-d]pyrimidine-2-carbonitrile]	–
71.5	30.5	–	53.2	Nc1nc(NC2CCCc3ccccc32)c2ncccc2n1 (stereo not drawn) [Compound 33, N^4-(1,2,3,4-tetrahydronaphthalen-1-yl)pyrido[3,2-d]pyrimidine-2,4-diamine]	–
74	31.4	–	51.9	Clc1cnc2c(NC3CCCc4ccccc43)ncnc2c1 (stereo not drawn) [Compound 38, 7-Chloro-N-(1,2,3,4-tetrahydronaphthalen-1-yl)pyrido[3,2-d]pyrimidin-4-amine]	–
7.54	–	–	–	c1ccc2c(c1)CCCC2Nc1ncnc2ncccc12 (stereo not drawn) [Compound 47, N-(1,2,3,4-Tetrahydronaphthalen-1-yl)pyrido[2,3-d]pyrimidin-4-amine]	–
–	–	75.8	37.1	Fc1nc(N[C@H]2CCCc3ccccc32)c2ncccc2n1 [Compound 49, (S)-2-Fluoro-N-(1,2,3,4-tetrahydronaphthalen-1-yl)pyrido [3,2-d]pyrimidin-4-amine]	inhibition at 0.25 µM (250 nM): 83.1%
54.4	32.1	–	46.8	c1ccc2c(c1)OCCC2Nc1ncnc2cccnc12 (stereo not drawn) [Compound 62, N-(3,4-dihydro-2H-1-benzopyran-4-yl)pyrido[3,2-d]pyrimidin-4-amine]	–
–	–	39.3	35.3	Cc1cc(C)n(-c2nc(NC3CCCc4ccccc43)c3ncccc3n2)n1 (stereo not drawn) [Compound 67, 2-(3,5-Dimethylpyrazol-1-yl)-N-tetralin-1-yl-pyrido[3,2-d]pyrimidin-4-amine]	inhibition at 1 µM (1 μM): 82.4%
–	18.4	48.5	–	CCCCCCOc1cnc2c(NC3CCCc4ccccc43)ncnc2c1 (stereo not drawn) [Compound 74, 7-Hexoxy-N-tetralin-1-yl-pyrido[3,2-d]pyrimidin-3-ium-4-amine chloride]	–
–	-9.01	18	–	c1ccc2c(Nc3ncnc4cccnc34)cccc2c1 [Compound 86, N-(1-Naphtyl)pyrido[3,2-d]pyrimidin-4-amine]	–
–	22.9	47.4	–	c1ccc2c(c1)CCC2Nc1ncnc2cccnc12 (stereo not drawn) [Compound 87, N-(2,3-dihydro-1H-inden-1-yl)pyrido[3,2-d]pyrimidin-4-amine]	–
–	25.8	54.8	–	COc1cccc2c1CCCC2Nc1ncnc2cccnc12 (stereo not drawn) [Compound 88, N-(5-methoxy-1,2,3,4-tetrahydronaphthalen-1-yl)pyrido[3,2-d]pyrimidin-4-amine]	–
–	16.1	39.9	–	Fc1ccc2c(c1)C(Nc1ncnc3cccnc13)CCC2 (stereo not drawn) [Compound 90, N-(7-fluoro-1,2,3,4-tetrahydronaphthalen-1-yl)pyrido[3,2-d]pyrimidin-4-amine]	–
71.8	45.9	–	53.5	CC1(C)CCC(Nc2ncnc3cccnc23)c2ccccc21 (stereo not drawn) [Compound 93, N-(4,4-dimethyl-1,2,3,4-tetrahydronaphthalen-1-yl)pyrido[3,2-d]pyrimidin-4-amine]	–
83.8	30.7	46.9	57.9	COCOc1ccc2c(c1)CCCC2N (stereo not drawn) [Compound 103, 6-(Methoxymethoxy)-1,2,3,4-tetrahydronaphthalen-1-amine]	–
54.7	29.7	–	46.8	OC1CCc2ccccc2C1Nc1ncnc2cccnc12 (stereo not drawn) [Compound 107, 1-(pyrido[3,2-d]pyrimidin-4-ylamino)-1,2,3,4-tetrahydro-naphthalen-2-ol]	–
67.3	39	–	56.3	Clc1ccc2ncnc(N[C@H]3CCCc4ccccc43)c2n1 [Compound 133, 6-Chloro-N-[(1S)-tetralin-1-yl]pyrido[3,2-d]pyrimidin-4-amine]	–
–	35.3	–	–	OC1CCC(Nc2ncnc3cccnc23)c2ccccc21 (stereo not drawn) [Compound 142-E1, 4-(Pyrido[3,2-d]pyrimidin-4-ylamino)tetralin-1-ol]	% SK3 inhibition (100 nM, 0.1 µM): 100 nM: 44.55 ± 5.67 (N = 5) %; % SK3 inhibition (10 μM): 10 μM: 57.16 ± 5.51 (N = 4) %
–	–	–	–	OC1CCC(Nc2ncnc3cccnc23)c2ccccc21 (stereo not drawn) [Compound 142-E2, 4-(Pyrido[3,2-d]pyrimidin-4-ylamino)tetralin-1-ol]	% SK3 inhibition (50 nM, 0.05 µM): 50 nM: 35.72 ± 1.79 (N = 4) %; % SK3 inhibition (100 nM, 0.1 µM): 100 nM: 59.42 ± 3.43 (N = 4) %; % SK3 inhibition (10 μM): 10 μM: 75.11 ± 2.87 (N = 4) %
–	–	–	–	OC1CCC(Nc2ncnc3cccnc23)c2ccccc21 (stereo not drawn) [Compound 142-E3, 4-(Pyrido[3,2-d]pyrimidin-4-ylamino)tetralin-1-ol]	% SK3 inhibition (50 nM, 0.05 µM): 50 nM: 30.69 ± 3.07 (N = 4) %; % SK3 inhibition (100 nM, 0.1 µM): 100 nM: 49.71 ± 4.48 (N = 4) %; % SK3 inhibition (10 μM): 10 μM: 58.9 ± 6.08 (N = 4) %
–	–	–	–	OC1CCC(Nc2ncnc3cccnc23)c2ccccc21 (stereo not drawn) [Compound 142-E4, 4-(Pyrido[3,2-d]pyrimidin-4-ylamino)tetralin-1-ol]	% SK3 inhibition: 10 μM: 48.28 ± 5.99 (N = 3) %; % SK3 inhibition (50 nM, 0.05 µM): 50 nM: 21.9 ± 2.32 (N = 3) %; % SK3 inhibition (100 nM, 0.1 µM): 100 nM: 37.97 ± 3.99 (N = 3) %
61.2	24.4	–	41.5	O=C1CCC(Nc2ncnc3cccnc23)c2ccccc21 (stereo not drawn) [Compound 152, 4-(Pyrido[3,2-d]pyrimidin-4-ylamino)tetralin-1-one]	–
54	32	–	51.1	Fc1ccc2c(c1)CCCC2Nc1ncnc2cccnc12 (stereo not drawn) [Compound 157, N-(6-Fluorotetralin-1-yl)pyrido[3,2-d]pyrimidin-4-amine]	–
84.8	35.8	–	64.1	Fc1cnc2c(N[C@H]3CCCc4ccccc43)ncnc2c1 [Compound 158, 7-Fluoro-N-[(1S)-tetralin-1-yl]pyrido[3,2-d]pyrimidin-4-amine]	–
